“Also recorded” adds a separate entry of the source.
Tests used:
linearized pBR322 DNA = test: DNA alkylation assay (electrophoretic gel assay) with linearized pBR322 DNA; format: biochemical; details: 37° C.; for DNA cross-linking: 10 μM
Procedure: FIG. 17 A. DNA alkylation assay employing linearized pBR322 DNA and the pyridone derivatives 17a or 17b or the unsaturated imines 15a or 15b. Conditions: Linearized pBR322 DNA (20 μM in base pairs (bps)), 15a (100, 10, 1, 0.5, or 0.1 μM), 15b (500, 100, 10, or 1 μM), 17a (500 or 100 μM) or 17b (500 or 100 μM), 37° C., 15 h. Cisplatin (CP; 100 μM) and methyl methanesulfonate (MMS; 500, 100, or 10 μM) were used as positive controls for DNA cross-linking and alkylation, respectively. DNA was visualized using SybrGold. B. DNA alkylation assay employing linearized pBR322 DNA and the unsaturated imine 15a. Conditions: Linearized pBR322 DNA (20 μM in base pairs), 15a (100, 10, 1, 0.1, 0.05, 0.01, or 0.005 μM), 37° C., 15 h.
FIG. 19 A. Structures of the dimer 15c and the gem-dimethyl derivative 15d. B. DNA alkylation assay employing linearized pBR322 DNA and the dimer 15c or the gem-dimethyl derivative 15d. Conditions: Linearized pBR322 DNA (20 μM in base pairs), 15c (10 μM) or 15d (500 or 100 μM), 37° C., 0.1-15 h.
B. DNA alkylation assay employing linearized pBR322 DNA and the unsaturated lactam 19 or the unsaturated imine 15j. Conditions: Linearized pBR322 DNA (20 μM in base pairs), 19 (500, 100, 10, or 1 μM) or 15j (500, 100, 10, or 1 μM), 37° C., 15 h.
Conditions: Linearized pBR322 DNA (20 μM in base pairs), 15h (1, 0.1, or 0.01 μM), 15i (1, 0.1, or 0.01 μM), 15f (1, 0.1, or 0.01 μM), 15g (1, 0.1, or 0.01 μM), 15a (1, 0.1, or 0.01 μM), 15e (1, 0.1, or 0.01 μM), 37° C., 15 h. Methyl methanesulfonate (MMS; 500 or 100 μM) was used as a positive control for DNA alkylation. DNA was visualized using SybrGold.
The activity of 15a, 15b, 17a, and 17b was evaluated in a DNA alkylation assay. Plasmid pBR322 DNA was treated with EcoRI-HF in Cutsmart buffer, and the resulting linearized DNA was incubated with 15a, 15b, 17a, or 17b for 15 h at 37° C. The DNA was then denatured, and the sample was eluted on a 1% neutral agarose gel. DNA was visualized with SybrGold. Cisplatin (CP, 100 μM) and methyl methanesulfonate (MMS, 500, 100, or 10 μM) were used as positive controls for DNA cross-linking and alkylation, respectively. […] The streaking of DNA induced by 15a and 15b parallels that observed with 500 μM of MMS and derives from the presence of shorter DNA strands that are formed by thermal or alkaline denaturation of extensively-alkylated (or in the case of MMS, methylated) DNA.^16 Further evidence for direct alkylation by 15a and 15b is presented in the cross-linking study outlined below.
The […] plasmid pBR322 was propogated in DH5a, isolated by MaxiPrep (Qiagen), and linearized with 5 U/μg EcoRI (NEB). The cut plasmid was column purified and eluted into 10 mM Tris pH 8.0. For each reaction, 130 ng of DNA (20 μM base pairs) was incubated with compound in a 10 μL total volume. Reactions proceeded for 15 h at 37° C., unless otherwise noted. Compounds were diluted in DMSO such that each reaction consisted of a fixed 5% DMSO concentration. Pure MMS (Alfa Aesar) and cisplatin (Biovision) stock solutions were diluted into DMSO immediately prior to use. After incubation, 35 μL of denaturation buffer (6% sucrose, 1% sodium hydroxide, 0.04% bromophenol blue) was added to each reaction. Non-denatured control samples were diluted with 6% sucrose, 0.04% bromophenol blue. Samples were vortexed for 1 min, left at room temperature for 15 min, and then immediately frozen at −80° C. Thawed samples were then loaded onto a 1% agarose Tris-Borate-EDTA (TBE) gel stained with SybrGold (Molecular Probes) and run in TBE buffer for 1 hour at 120V.

calf thymus DNA (ctDNA) = test: DNA melting temperature analysis (UV thermal denaturation); format: binding
Procedure: Conditions: 2.09 mM NaH2PO4, 7.13 mM Na2HPO4, 928 μM Na2EDTA, 1.01 mM DMSO, pH 7.18. The imine 15a was incubated with ctDNA for 5 min, 1 h, 3 h, 6 h, or 15 h prior to UV thermal denaturation experiments (260 nm, heating rate: 0.5° C./min). [DNA]=32.0 mM bps. The Tm was defined as the temperature at which half of the duplex DNA was unwound, and was determined by the maximum of the first derivative of the thermal denaturation profile.
Conditions: 2.09 mM NaH2PO4, 7.13 mM Na2HPO4, 928 μM Na2EDTA, 1.01 mM DMSO, pH 7.18. The pyridone 17a was incubated with ctDNA for 3 h prior to UV thermal denaturation experiments (260 nm, heating rate: 0.5° C./min). [DNA]=32.0 mM bps. The Tm was defined as the temperature at which half of the duplex DNA was unwound, and was determined by the maximum of the first derivative of the thermal denaturation profile.
A DNA melting temperature analysis was conducted to determine if the variance in DNA alkylation activity between the pyridones and the unsaturated imines was due to differences in DNA binding affinity. The hyperchromicity of calf thymus DNA (ctDNA) with increasing temperature was measured at 260 nm in the presence of varying concentrations of 15a or 17a. The Tm was defined as the temperature at which half of the duplex DNA was unwound and was determined by the maximum of the first derivative of the thermal denaturation profile. […] The inventors hypothesized that this was due to an initial binding of 15a to the duplex followed by slow alkylation and degradation. To probe this, they repeated the plasmid alkylation assay using 15a and evaluated the extent of DNA alkylation as a function of time.
UV thermal denaturation samples were prepared by mixing calf thymus DNA [32.0 mM base pairs (bps)] in 2.09 mM NaH2PO4, 7.13 mM Na2HPO4, 928 μM Na2EDTA, 1.01 mM DMSO, pH 7.18 to a final volume of 1.0 mL. Samples were subjected to sonication (6 h) at 25° C. to effect complete dissolution. After incubation with 15a, 15b, 17a, and 17b for 5 min, 1 h, 3 h, 6 h, or 15 h, the UV thermal denaturation spectra of the samples were recorded at 260 nm as a function of temperature (55→80° C., heating rate: 0.5° C./min). First derivative plots were used to determine the denaturation temperature.

[1] = system: colibactin peptidase ClbP; test: LC-HRMS analysis for the in vivo cleavage of synthetic 6 by ClbP; format: cell-based; details: 50 μM in E. coli DH10B pClbP culture, 37° C., 24 h
Procedure: E. coli DH10B pClbP (pPEB018) and the bacteria harboring the empty vector pBAD18 (as previously reported^3) were grown in LB medium supplemented with 100 μg/mL ampicillin. The next morning, 50 μL of these saturated cultures were used to inoculate 2.5 mL of LB medium containing 100 μg/mL ampicillin. Cultures were incubated at 37° C. with shaking at 250 rpm. At an OD600 of 0.4-0.5, cultures were induced with L-arabinose and left to grow for another 30 min. Then, the synthetic 6 substrate (10 mM stock solution in DMSO) or DMSO (vector control) was added to each culture to a final concentration of 50 μM, and incubated at 37° C. for 24 h. At the designated time point, the cultures were extracted with organic solvent and analyzed by LC-HRMS on a Phenomenex C18-A column (150×4.6 mm, 180 Å, 5 μm particle size, Agilent) with a water:acetonitrile (ACN) gradient containing 0.1% formic acid 0.7 mL/min: 1-2 min, 5% ACN; ramp to 98% ACN over 18 min; hold for 5 min at 100% ACN.

[2] = system: colibactin peptidase ClbP; details: earlier publication (ref. 10); cited from earlier work
[3] = linearized pBR322 DNA (20 μM bp), 15 h
[4] = linearized pBR322 DNA (20 μM bp), 15 h, concentrations up to 500 μM
[5] = 2 bp equiv, incubation 5 min to 15 h

C[C@H]1CCC(C2=C(CC(=O)NCc3nc(-c4nc(C(=O)NCCN(C)C)cs4)cs3)C3(CC3)NC2=O)=N1 [15a]
extent of DNA damage, dose response (linearized pBR322 DNA; 5 nM, 15 h (FIG. 17B)): negligible
extent of DNA alkylation as a function of time (linearized pBR322 DNA; 1 μM, 0.1-15 h (FIG. 18C)): alkylation activity correlated approximately with the decrease in duplex stability
DNA damage, dose response (linearized pBR322 DNA; 50 or 10 nM, 15 h (FIG. 17B)): small amounts of DNA damage
DNA alkylation, dose response (linearized pBR322 DNA; concentrations as low as 100 nM, 15 h (FIG. 17B)): extensive DNA alkylation
DNA alkylation (linearized pBR322 DNA; [3]): extensively alkylated DNA
DNA alkylation activity relative to 15b (linearized pBR322 DNA; linearized pBR322 DNA, 15 h (FIG. 17A)): significantly more active than the N-methylamide 15b
time dependence of the effect on melting temperature / duplex stability (calf thymus DNA (ctDNA); 1 or 2 bp equiv, incubation 5 min, 1 h, 3 h, 6 h or 15 h): time-dependent effects on duplex stability; also recorded: Time-dependent modulation of the melting temperature
duplex stability (calf thymus DNA (ctDNA); longer incubations (3-15 h), 1 or 2 bp equiv): duplex stability decreased
increase in Tm (calf thymus DNA (ctDNA); rligand/bp=2): 1.8 °C
duplex stability (calf thymus DNA (ctDNA); times less than 1 h, 1 or 2 bp equiv): stabilization of the duplex was observed

CCCCCCCCCCCCCC(=O)N[C@H](CC(N)=O)C(=O)N[C@@H](C)CCc1c2c(cc(=O)n1Cc1nc(-c3nc(C(=O)O)cs3)cs1)C1(CC1)NC2=O [precolibactin C (6)]
cleavage by ClbP [1]: converted to N-myristoyl-D-Asn and its corresponding colibactin by colibactin peptidase ClbP; also recorded: converted to N-myristoyl-D-Asn and its corresponding colibactin in a ClbP-dependent manner
substrate for ClbP [2]: demonstrated to be a substrate for ClbP

C[C@H]1CCC(C2=C(CC(=O)N(C)Cc3nc(-c4nc(C(=O)NCCN(C)C)cs4)cs3)C3(CC3)NC2=O)=N1 [15j]
DNA alkylation / decomposition of the DNA (linearized pBR322 DNA; 10 or 1 μM, 15 h (FIG. 21B)): extensive decomposition of the DNA
DNA alkylation potency relative to lactam 19 (linearized pBR322 DNA; 15 h (FIG. 21B)): significantly more potent

C[C@@H](CCC(=O)C1=C(CC(=O)N(C)Cc2nc(-c3nc(C(=O)NCCN(C)C)cs3)cs2)C2(CC2)NC1=O)NC(=O)OC(C)(C)C [compound 19]
DNA alkylation activity (linearized pBR322 DNA; 500 μM, 15 h (FIG. 21B)): weak DNA alkylation activity

CNC(=O)c1csc(-c2csc(Cn3c(CC[C@H](C)N)c4c(cc3=O)C3(CC3)NC4=O)n2)n1 [17b]
DNA alkylation activity (linearized pBR322 DNA; [4]): neither of the pyridone derivatives 17a or 17b displayed measurable activity
modulation of the melting temperature of calf thymus DNA (calf thymus DNA (ctDNA); [5]): no significant modulation

C[C@H](N)CCc1c2c(cc(=O)n1Cc1nc(-c3nc(C(=O)NCCN(C)C)cs3)cs1)C1(CC1)NC2=O [17a]
DNA alkylation activity (linearized pBR322 DNA; [4]): neither of the pyridone derivatives 17a or 17b displayed measurable activity
effect of increasing amounts on melting temperature of ctDNA (calf thymus DNA (ctDNA); incubated with ctDNA for 3 h, 260 nm): dose-dependent increase in the melting temperature
increase in Tm (calf thymus DNA (ctDNA); ratio of compound to base pairs of 4.0, incubated 3 h): 3.8 °C
increase in Tm (calf thymus DNA (ctDNA); rligand/bp=2): 2.8 °C

CNC(=O)c1csc(-c2csc(CNC(=O)CC3=C(C4=N[C@@H](C)CC4)C(=O)NC34CC4)n2)n1 [15b]
DNA alkylation (linearized pBR322 DNA; [3]): extensively alkylated DNA
modulation of the melting temperature of calf thymus DNA (calf thymus DNA (ctDNA); 1 bp equiv, incubation 5 min, 3 h or 15 h): no significant modulation
modulation of the melting temperature of calf thymus DNA (calf thymus DNA (ctDNA); [5]): no significant modulation

C[C@H]1CCC(C2=C(CC(=O)NCc3nc(-c4nc(C(=O)NCCCN(C)CCCNC(=O)c5csc(-c6csc(CNC(=O)CC7=C(C8=N[C@@H](C)CC8)C(=O)NC78CC8)n6)n5)cs4)cs3)C3(CC3)NC2=O)=N1 [15c]
DNA cross-linking (linearized pBR322 DNA; 3 h): a clear cross-linked band
DNA cross-linking (linearized pBR322 DNA; later timepoints (6 or 15 h)): this cross-linked band diminished

C[C@H]1CCC(C2=C(CC(=O)NCc3nc(-c4nc(C(=O)NCCN(C)C)cs4)cs3)C(C)(C)NC2=O)=N1 [15d]
DNA alkylation activity (linearized pBR322 DNA; [4]): did not alkylate DNA

— patent US20190031650A1, “DNA ALKYLATION AND CROSS-LINKING AGENTS AS COMPOUNDS AND PAYLOADS FOR TARGETED THERAPIES” (YALE UNIVERSITY, priority 2016, published 2019)
